Results: US20100120799A1, “PURINE DERIVATIVES AS IMMUNOMODULATORS” (SMITHKLINE BEECHAM CORPORATION, priority 2007, published 2010)
pEC50: −log10 of the molar value. Several values for one entry are separate records, joined by “and”; a condition that tells them apart may be missing. Equal entries are not always repeated.

What was measured:
[1] = system: HCV ET replicon cells (Huh-7, HCV Con1-ET construct); experiment: Replicon assay: inhibition of Hepatitis C virus replication by supernatants from compound-stimulated human PBMC; assay type: cell-based; details: Huh-7 HCV ET replicon, luciferase, 48 h incubation, read-out: mean EC50 (compound concentration giving a PBMC supernatant inhibiting HCV replication by 50%)
Procedure: Inhibition of Hepatitis C virus Replication by Supernatants from Compound-Stimulated Human Peripheral Blood Mononuclear Cells (PBMC).
An assay was established to measure the antiviral activity in supernatants from human PBMC which had been previously stimulated with compounds.
Activity assays were conducted using an Huh-7 cell line stably-transfected with a dicistronic replicon, comprising the HCV Con1-ET construct (Pietschmann et al., 2002 J. Virol. 2002 76(8):4008-21) and the firefly (Photinus pyralis) luciferase gene, obtained from ReBLikon GmbH, Germany.
1.5×10^4 HCV ET replicon cells per well were grown in 96-well plates overnight in 90 microlitres of cell culture medium. Ten microlitres of three-fold dilutions of PBMC supernatants generated above (stimulation of human donor blood-derived peripheral blood mononuclear cells (PBMC) with test compounds) were added to the ET cells. Following a 48-hour incubation, assay medium was removed and luciferase activity measured in the cell monolayers using the Steadylite assay system (Perkin Elmer). EC50 values were calculated as the compound concentration giving a PBMC supernatant which was able to inhibit HCV replication by 50% compared with a supernatant from unstimulated PBMC cultures.

[2] = system: Ovalbumin (OVA)-induced acute pulmonary inflammation; experiment: Ovalbumin-induced acute pulmonary inflammation model; assay type: in vivo, BALB/c mice; details: BAL on day 28
Procedure: Inhibition of Ovalbumin (OVA)—Induced Acute Pulmonary Inflammation. Female BALB/c mice (18-20 g) were inoculated on days 0 and 14, with 10 μg OVA adsorbed to 2 mg aluminium hydroxide in a volume of 0.2 ml phosphate buffered saline (PBS) via the intra-peritoneal route. On days 24-26, mice were intra-nasally challenged with 50 μl of either saline or OVA (formulated as above) under general anaesthesia. […] Doses were given once daily on days 23 to 27 with the initial dose 24 h prior to the first challenge. On the days of challenge, animals were dosed with compound or vehicle one hour after challenge. Animals therefore received a total of 5 doses. Dexamethasone was used as a positive control dosed at 10 mg/kg orally in the same vehicle once daily on days 24 to 27 with the initial dose 1 h prior to the first challenge. Animals therefore received a total of 4 doses. Animals were killed on day 28 (48 hours post last saline or OVA challenge) and bronchoalveolar lavage (BAL) was performed with 5×1 ml (0.1% bovine serum albumin, 10 mM EDTA in PBS) and pooled. Numbers of lymphocytes, macrophages, eosinophils and neutrophils in BAL were identified by light scatter flow cytometry and quantified.

[3] = 5 mg/kg orally once daily days 23 to 27, compared with saline treated controls
[4] = positive control, 10 mg/kg orally once daily days 24 to 27, 10 mg/kg

Compound: CCCCOc1nc(N)c2[nH]c(=O)n(CC3CCOCC3)c2n1 [Example 1, 6-Amino-2-butoxy-9-(tetrahydro-2H-pyran-4-ylmethyl)-7,9-dihydro-8H-purin-8-one]
- pEC50 [1]: 7.37

Compound: CCCCNc1nc(N)c2[nH]c(=O)n(CC3CCOCC3)c2n1 [Example 4, 6-Amino-2-butylamino-9-(tetrahydro-2H-pyran-4-ylmethyl)-7,9-dihydro-8H-purin-8-one]
- pEC50 [1]: 5.98
- reduction of eosinophil counts in BAL [2, 3]: 72%
- reduction of lymphocyte counts in BAL [2, 3]: 66%
- reduction of neutrophil counts in BAL [2, 3]: 50%

Compound: CCCCOc1nc(N)c2[nH]c(=O)n(CC3CCCOC3)c2n1 (centres unmarked) [Example 12, 6-Amino-2-butoxy-9-(tetrahydro-2H-pyran-3-ylmethyl)-7,9-dihydro-8H-purin-8-one]
- reduction of eosinophil counts in BAL [2, 3]: 67%
- reduction of lymphocyte counts in BAL [2, 3]: 68%
- reduction of neutrophil counts in BAL [2, 3]: 58%

Compound: C[C@@H]1C[C@H]2[C@@H]3CCC4=CC(=O)C=C[C@]4(C)[C@@]3(F)[C@@H](O)C[C@]2(C)[C@@]1(O)C(=O)CO [dexamethasone, Dexamethasone, reference compound]
- reduction of eosinophil counts in BAL [2, 4]: 92% and 86%
- reduction of lymphocyte counts in BAL [2, 4]: 87% and 86%
- reduction of neutrophil counts in BAL [2, 4]: 68% and 65%
